For the assay, the system named is human epithelial tumor cells. The conditions noted are these: DMEM/F12 based culture medium supplemented with BSA vs without; FIG. 10. The procedure: DF12: DMEM/F12 based culture medium. DF12+BSA: DMEM/12 based culture medium supplemented with BSA. Cell proliferation was measured by EdU incorporation. Error bars represent standard deviation (SD).

Take bovine serum albumin [BSA]: the “growth of human epithelial tumor cells (cell proliferation by EdU incorporation)” value is reported as “supports the growth”.

The values above are taken from US20190284536A1, “EPITHELIAL TUMOR CELL CULTURES” (Beijing Percans Oncology Co., Ltd., priority 2016, published 2019).
